Experimental data from patent US20250353891A1 (MEDIMMUNE LIMITED, priority 2022, published 2025).
pEC50: −log10 of the molar value. Starred links: 1 amine or outer side, 2 acyl side, 3 side chain; linkers in the order of their positions; H or OH if unused. Non-standard residues stand in square brackets, D forms with d. Residues, ends and D or L forms follow the SMILES beside them. Groups on a side chain read outwards from the residue. *: point of attachment. C20 diacid = O=C(O)CCCCCCCCCCCCCCCCCCC(=O)*; C18 diacid = O=C(O)CCCCCCCCCCCCCCCCC(=O)*; γGlu = O=C(O)[C@H](CCC(=O)[*:2])N[*:1]; αMeF = C[C@](N)(Cc1ccccc1)C(=O)O; AEEA = NCCOCCOCC(=O)O; Aib = CC(C)(N)C(=O)O

Legend:
[1] = target: human GLP-1 receptor (hGLP-1R) (Homo sapiens, UniProt P43220); assay: cAMP production (HTRF) in CHO cells expressing hGLP-1R; format: cell-based; set-up: expressed in transfected cells; settings: for pEC50: Table 6, peptides modified at position 17, cAMP in CHO hGLP-1R cells, geometric mean, read-out: hGLP-1R EC50; for % Relative Potency Ratio: Table 6, % GLP-1R activity relative to GLP-1 / % GlucR activity relative to glucagon
Outline: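 Cells were resuspended in assay buffer at batch-optimized density, typically 1×10^5 cells/mL for hGLP-1R and 2×10^5 cells/mL for hGCGR. After 30 min incubation at room temperature with compound, cAMP was measured by two-step HTRF. EC50 values came from 4-parameter logistic fits of % Delta F.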

[2] = target: human glucagon receptor (hGCGR) (Homo sapiens, UniProt P47871); assay: cAMP production (HTRF) in CHO cells expressing hGCGR; format: cell-based; set-up: expressed in transfected cells; settings: Table 6, peptides modified at position 17; cAMP in CHO hGCGR cells; geometric mean; read-out: hGluc-R EC50
Experimental: Cells were re-suspended in assay buffer at a batch-dependent optimized concentration (typically hGLP-1R cells at 1×10^5 cells/mL, hGCGR cells at 2×10^5 cells/mL).
Cells were added to the assay plate using a multidrop dispenser and incubated at room temperature for 30 minutes before measuring the cAMP level using a cAMP dynamic 2 homogeneous time resolved Fluorescence (HTRF) kit (Cisbio Bioassays #62AM4PEJ) following the two-step protocol as per manufacturer's recommendations. In brief, anti-cAMP cryptate (donor fluorophore) and cAMP-d2 (acceptor fluorophore) were made up separately by diluting each 1 in 20 in conjugate and lysis buffer provided in the kit. Anti-CAMP cryptate was added to all wells of the assay plate, followed by cAMP-d2 added to all wells except non-specific binding (NSB) wells (to which conjugate and lysis buffer was added).
Data was transformed to % Delta F as described in the manufacturer's guidelines and analyzed by 4-parameter logistic fit to determine EC50 values.

human GLP-1 receptor (hGLP-1R), sequence (P43220 24-463): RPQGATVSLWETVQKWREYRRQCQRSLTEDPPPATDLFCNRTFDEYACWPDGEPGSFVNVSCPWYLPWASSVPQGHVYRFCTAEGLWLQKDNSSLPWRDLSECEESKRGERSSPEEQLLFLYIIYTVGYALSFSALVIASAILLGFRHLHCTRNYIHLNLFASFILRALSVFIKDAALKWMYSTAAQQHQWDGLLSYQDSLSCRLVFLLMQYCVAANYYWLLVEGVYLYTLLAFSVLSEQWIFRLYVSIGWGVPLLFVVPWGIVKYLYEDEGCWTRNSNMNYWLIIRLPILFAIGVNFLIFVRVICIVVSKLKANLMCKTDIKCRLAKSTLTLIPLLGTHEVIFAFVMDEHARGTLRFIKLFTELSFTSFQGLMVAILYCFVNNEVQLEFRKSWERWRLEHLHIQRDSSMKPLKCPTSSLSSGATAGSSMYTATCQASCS
human glucagon receptor (hGCGR), sequence (P47871 26-477): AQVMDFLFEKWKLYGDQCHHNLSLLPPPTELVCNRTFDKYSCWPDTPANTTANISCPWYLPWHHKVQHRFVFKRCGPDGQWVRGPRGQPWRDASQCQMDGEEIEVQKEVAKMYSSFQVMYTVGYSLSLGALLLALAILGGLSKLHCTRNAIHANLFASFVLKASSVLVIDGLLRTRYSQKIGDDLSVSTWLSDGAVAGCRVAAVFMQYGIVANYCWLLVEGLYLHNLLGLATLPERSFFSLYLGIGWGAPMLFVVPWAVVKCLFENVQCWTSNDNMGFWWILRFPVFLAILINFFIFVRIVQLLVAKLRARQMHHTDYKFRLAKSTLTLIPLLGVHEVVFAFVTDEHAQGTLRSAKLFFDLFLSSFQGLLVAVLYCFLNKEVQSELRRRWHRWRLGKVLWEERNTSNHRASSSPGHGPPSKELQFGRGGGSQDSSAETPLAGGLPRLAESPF

SMILES	pEC50 [1]	% Relative Potency Ratio [1]	pEC50 [2]
CC[C@H](C)[C@H](NC(=O)C(C)(C)NC(=O)[C@H](C)NC(=O)[C@@H](NC(=O)[C@](C)(Cc1ccccc1)NC(=O)[C@H](CC(=O)O)NC(=O)[C@H](CCCNC(=N)N)NC(=O)[C@H](C)NC(=O)[C@H](C)NC(=O)[C@H](CCCCNC(=O)COCCOCCNC(=O)COCCOCCNC(=O)CC[C@H](NC(=O)CCCCCCCCCCCCCCCCC(=O)O)C(=O)O)NC(=O)[C@H](CO)NC(=O)[C@H](CC(=O)O)NC(=O)[C@H](CC(C)C)NC(=O)[C@](C)(Cc1ccccc1)NC(=O)[C@H](CCCCN)NC(=O)[C@H](CO)NC(=O)[C@@H](NC(=O)[C@H](CC(=O)O)NC(=O)[C@H](CO)NC(=O)[C@@H](NC(=O)[C@](C)(Cc1ccccc1)NC(=O)[C@H](CO)NC(=O)CNC(=O)[C@H](Cc1c[nH]cn1)NC(=O)C(C)(C)NC(=O)[C@@H](N)Cc1c[nH]cn1)[C@@H](C)O)C(C)C)[C@@H](C)CC)C(=O)N[C@@H](C)C(=O)N[C@@H](CC(N)=O)C(=O)N[C@H](C(N)=O)[C@@H](C)O [Peptide 16] (H-H[Aib]HGS[αMeF]TSDVSK[αMeF]LDSK([AEEA-AEEA-γGlu-C18 diacid])AARD[αMeF]IA[Aib]IANT-NH2; N-terminus assumed)	10.48	6.3	9.98
CC[C@H](C)[C@H](NC(=O)[C@H](CO)NC(=O)[C@H](CCC(=O)O)NC(=O)[C@@H](NC(=O)[C@](C)(Cc1ccccc1)NC(=O)[C@H](CC(=O)O)NC(=O)[C@H](CCC(N)=O)NC(=O)[C@H](C)NC(=O)[C@H](C)NC(=O)[C@H](CCCCNC(=O)CC[C@H](NC(=O)CCCCCCCCCCCCCCCCC(=O)O)C(=O)O)NC(=O)[C@H](CO)NC(=O)[C@H](CC(=O)O)NC(=O)[C@H](CC(C)C)NC(=O)[C@](C)(Cc1ccccc1)NC(=O)[C@H](CCCCN)NC(=O)[C@H](CO)NC(=O)[C@@H](NC(=O)[C@H](CC(=O)O)NC(=O)[C@H](CO)NC(=O)[C@@H](NC(=O)[C@](C)(Cc1ccccc1)NC(=O)[C@H](CO)NC(=O)CNC(=O)[C@H](Cc1c[nH]cn1)NC(=O)C(C)(C)NC(=O)[C@@H](N)Cc1c[nH]cn1)[C@@H](C)O)C(C)C)C(C)C)C(=O)N[C@@H](C)C(=O)N[C@@H](CC(N)=O)C(=O)N[C@H](C(N)=O)[C@@H](C)O [Peptide 21] (H-H[Aib]HGS[αMeF]TSDVSK[αMeF]LDSK([γGlu-C18 diacid])AAQD[αMeF]VESIANT-NH2; N-terminus assumed)	9.42	0.4	10.16
CC[C@H](C)[C@H](NC(=O)[C@H](CO)NC(=O)[C@H](CCC(=O)O)NC(=O)[C@@H](NC(=O)[C@](C)(Cc1ccccc1)NC(=O)[C@H](CC(=O)O)NC(=O)[C@H](CCC(N)=O)NC(=O)[C@H](C)NC(=O)[C@H](C)NC(=O)[C@H](CCCCNC(=O)COCCOCCNC(=O)COCCOCCNC(=O)CC[C@H](NC(=O)CC[C@H](NC(=O)CCCCCCCCCCCCCCCCCCC(=O)O)C(=O)O)C(=O)O)NC(=O)[C@H](CO)NC(=O)[C@H](CC(=O)O)NC(=O)[C@H](CC(C)C)NC(=O)[C@](C)(Cc1ccccc1)NC(=O)[C@H](CCCCN)NC(=O)[C@H](CO)NC(=O)[C@@H](NC(=O)[C@H](CC(=O)O)NC(=O)[C@H](CO)NC(=O)[C@@H](NC(=O)[C@](C)(Cc1ccccc1)NC(=O)[C@H](CO)NC(=O)CNC(=O)[C@H](Cc1c[nH]cn1)NC(=O)C(C)(C)NC(=O)[C@@H](N)Cc1c[nH]cn1)[C@@H](C)O)C(C)C)C(C)C)C(=O)N[C@@H](C)C(=O)N[C@@H](CC(N)=O)C(=O)N[C@H](C(N)=O)[C@@H](C)O [Peptide 22] (H-H[Aib]HGS[αMeF]TSDVSK[αMeF]LDSK([AEEA-AEEA-γGlu-γGlu-C20 diacid])AAQD[αMeF]VESIANT-NH2; N-terminus assumed)	8.91	4.4	8.56

Further lines, results first:

pEC50 [1]	% Relative Potency Ratio [1]	pEC50 [2]	SMILES
10.35	5.9	9.87	CC[C@H](C)[C@H](NC(=O)[C@H](CO)NC(=O)[C@H](CCC(=O)O)NC(=O)[C@@H](NC(=O)[C@](C)(Cc1ccccc1)NC(=O)[C@H](CC(=O)O)NC(=O)[C@H](CCCNC(=N)N)NC(=O)[C@H](C)NC(=O)[C@H](C)NC(=O)[C@H](CCCCNC(=O)COCCOCCNC(=O)COCCOCCNC(=O)CC[C@H](NC(=O)CCCCCCCCCCCCCCCCC(=O)O)C(=O)O)NC(=O)[C@H](CO)NC(=O)[C@H](CC(=O)O)NC(=O)[C@H](CC(C)C)NC(=O)[C@](C)(Cc1ccccc1)NC(=O)[C@H](CCCCN)NC(=O)[C@H](CO)NC(=O)[C@@H](NC(=O)[C@H](CC(=O)O)NC(=O)[C@H](CO)NC(=O)[C@@H](NC(=O)[C@](C)(Cc1ccccc1)NC(=O)[C@H](CO)NC(=O)CNC(=O)[C@H](Cc1c[nH]cn1)NC(=O)C(C)(C)NC(=O)[C@@H](N)Cc1c[nH]cn1)[C@@H](C)O)C(C)C)C(C)C)C(=O)N[C@@H](C)C(=O)N[C@@H](CC(N)=O)C(=O)N[C@H](C(N)=O)[C@@H](C)O [Peptide 17] (H-H[Aib]HGS[αMeF]TSDVSK[αMeF]LDSK([AEEA-AEEA-γGlu-C18 diacid])AARD[αMeF]VESIANT-NH2; N-terminus assumed)
10.69	11.7	9.92	CC[C@H](C)[C@H](NC(=O)[C@H](CO)NC(=O)[C@H](CCC(N)=O)NC(=O)[C@@H](NC(=O)[C@](C)(Cc1ccccc1)NC(=O)[C@H](CC(=O)O)NC(=O)[C@H](CCCNC(=N)N)NC(=O)[C@H](C)NC(=O)[C@H](C)NC(=O)[C@H](CCCCNC(=O)COCCOCCNC(=O)COCCOCCNC(=O)CC[C@H](NC(=O)CCCCCCCCCCCCCCCCC(=O)O)C(=O)O)NC(=O)[C@H](CO)NC(=O)[C@H](CC(=O)O)NC(=O)[C@H](CC(C)C)NC(=O)[C@](C)(Cc1ccccc1)NC(=O)[C@H](CCCCN)NC(=O)[C@H](CO)NC(=O)[C@@H](NC(=O)[C@H](CC(=O)O)NC(=O)[C@H](CO)NC(=O)[C@@H](NC(=O)[C@](C)(Cc1ccccc1)NC(=O)[C@H](CO)NC(=O)CNC(=O)[C@H](Cc1c[nH]cn1)NC(=O)C(C)(C)NC(=O)[C@@H](N)Cc1c[nH]cn1)[C@@H](C)O)C(C)C)C(C)C)C(=O)N[C@@H](C)C(=O)N[C@@H](CC(N)=O)C(=O)N[C@H](C(N)=O)[C@@H](C)O [Peptide 18] (H-H[Aib]HGS[αMeF]TSDVSK[αMeF]LDSK([AEEA-AEEA-γGlu-C18 diacid])AARD[αMeF]VQSIANT-NH2; N-terminus assumed)
10.42	6.9	9.87	CC[C@H](C)[C@H](NC(=O)C(C)(C)NC(=O)[C@H](CCC(N)=O)NC(=O)[C@@H](NC(=O)[C@](C)(Cc1ccccc1)NC(=O)[C@H](CC(=O)O)NC(=O)[C@H](CCCNC(=N)N)NC(=O)[C@H](C)NC(=O)[C@H](C)NC(=O)[C@H](CCCCNC(=O)COCCOCCNC(=O)COCCOCCNC(=O)CC[C@H](NC(=O)CC[C@H](NC(=O)CCCCCCCCCCCCCCCCC(=O)O)C(=O)O)C(=O)O)NC(=O)[C@H](CO)NC(=O)[C@H](CC(=O)O)NC(=O)[C@H](CC(C)C)NC(=O)[C@](C)(Cc1ccccc1)NC(=O)[C@H](CCCCN)NC(=O)[C@H](CO)NC(=O)[C@@H](NC(=O)[C@H](CC(=O)O)NC(=O)[C@H](CO)NC(=O)[C@@H](NC(=O)[C@](C)(Cc1ccccc1)NC(=O)[C@H](CO)NC(=O)CNC(=O)[C@H](Cc1c[nH]cn1)NC(=O)C(C)(C)NC(=O)[C@@H](N)Cc1c[nH]cn1)[C@@H](C)O)C(C)C)C(C)C)C(=O)N[C@@H](C)C(=O)N[C@@H](CC(N)=O)C(=O)N[C@H](C(N)=O)[C@@H](C)O [Peptide 19] (H-H[Aib]HGS[αMeF]TSDVSK[αMeF]LDSK([AEEA-AEEA-γGlu-γGlu-C18 diacid])AARD[αMeF]VQ[Aib]IANT-NH2; N-terminus assumed)
9.82	1.8	9.87	CC[C@H](C)[C@H](NC(=O)C(C)(C)NC(=O)[C@H](CCC(=O)O)NC(=O)[C@@H](NC(=O)[C@](C)(Cc1ccccc1)NC(=O)[C@H](CC(=O)O)NC(=O)[C@H](CCCNC(=N)N)NC(=O)[C@H](C)NC(=O)[C@H](C)NC(=O)[C@H](CCCCNC(=O)COCCOCCNC(=O)COCCOCCNC(=O)CC[C@H](NC(=O)CC[C@H](NC(=O)CCCCCCCCCCCCCCCCC(=O)O)C(=O)O)C(=O)O)NC(=O)[C@H](CO)NC(=O)[C@H](CC(=O)O)NC(=O)[C@H](CC(C)C)NC(=O)[C@](C)(Cc1ccccc1)NC(=O)[C@H](CCCCN)NC(=O)[C@H](CO)NC(=O)[C@@H](NC(=O)[C@H](CC(=O)O)NC(=O)[C@H](CO)NC(=O)[C@@H](NC(=O)[C@](C)(Cc1ccccc1)NC(=O)[C@H](CO)NC(=O)CNC(=O)[C@H](Cc1c[nH]cn1)NC(=O)C(C)(C)NC(=O)[C@@H](N)Cc1c[nH]cn1)[C@@H](C)O)C(C)C)C(C)C)C(=O)N[C@@H](C)C(=O)N[C@@H](CC(N)=O)C(=O)N[C@H](C(N)=O)[C@@H](C)O [Peptide 20] (H-H[Aib]HGS[αMeF]TSDVSK[αMeF]LDSK([AEEA-AEEA-γGlu-γGlu-C18 diacid])AARD[αMeF]VE[Aib]IANT-NH2; N-terminus assumed)
